# Data published in patent publication US11578110B2, “Compounds for inducing tissue formation and uses thereof” (HISTIDE AG, priority 2015, dated 2023).
# No end group written: not given here.
# Test system: hMSCs
# Experiment: STRO-1 stemness marker expression in hMSCs (immunostaining, ImageJ quantification)
# Format: cell-based, Human
# Details: SEQ ID NO: 1 to 49 tested in combination with a bioactive carrier (titanium, ceramics, PEEK, hydrogel, etc.)
# Experimental: The cells were first fixed for 20 min with 4% paraformaldehyde/PBS at 4° C. After fixation, the cells were permeabilized in PBS containing 1% Triton X-100 for 15 min. Runx2, Osterix, Stro-1, Vinculin, Phalloidin, Osteopontin, Sox2, Sox9 antibodies were visualized by treating the cells with 1% (v/v) specific monoclonal antibodies for 1 hour at 37° C. Then the samples were incubated with Alexa fluor® 568 or 647 (F(ab′)2 fragment of IgG(H+L)) during 30 min at room temperature. The cell nuclei were counterstained in 20 ng/mL DAPI for 10 min at room temperature.
# For this type of quantification the freeware image analysis ImageJ® software was used. The raw image was first converted to an 8-bit file, and then the unsharp mask feature was used (settings 1:0.2) to remove the image background (rolling ball radius 10). After smoothing, the resulting image, which appears similar to the original photomicrograph but with minimal background, was then converted to a binary image by setting a threshold. Threshold values were determined empirically by selecting a setting, which gave the most accurate binary image for a subset of randomly selected photomicrographs. The cell area was determined by manual delineation on raw fluorescent images. Total contact area and mean contact area per cell were calculated by “analyse particles” in ImageJ®. A minimum of 30 cells per condition were analyzed. Stro-1, CD-34+, and CD-105 expressions were determined using this procedure.
# hMSCs were cultured on conventional cell culture plastic plates with or without the presence in the cell culture media of different GFR-binding compounds as defined hereins (SEQ ID NO: 50 to 104) in solution. […] This was probed by Stro-1 immunostaining after cell fixation as described in the Methods section. The quantification of Stro-1 positive contact numbers and areas was performed as described in the Methods section. A minimum of 30 cells per condition were analyzed.
# RMSD values are always calculated for a GFR-binding peptide sequence exempt from any bioactive-carrier-affinity-containing group as defined herein (e.g. cysteine, WWFWG, GTPGP, etc. . . . ). When needed i.e. when attachment to a bioactive carrier is contemplated, the bioactive-carrier-affinity-containing group is then present in the GFR-binding compound when it is biologically tested. Using the method detailed in the description, the RMSD of 57 previously reported peptide sequences have been determined (Table 6) and correlated with the expression of STRO-1 after grafted on a PET surface via a procedure as already described above. […] One should note that it is commonly admitted that the expression of STRO-1 in a cell is indicative of a cell that is in a substantially non-differentiated state and the decrease of its expression of at least about 20% is indicative of a cell that has started a processes of differentiation but which may not result in the differentiation of the cell. A decrease of more than 50% would be indicative of the presence of a significant shift towards a differentiated state. A decrease of more than 70% would be indicative of the presence of a very important shift towards a differentiated state. A sustained decrease (e.g. for at least 96 h) of more than 50% or 70% would be indicative of the presence of an even more important shift towards a differentiated state.
# Likewise, using the method detailed in the description, the RMSD of 87 GFR-binding peptide sequence representatives of the invention have been determined (Table 7) and correlated with the expression of STRO-1 after grafted on a PET surface via a procedure as already described above. SEQ ID NO: 1 to 49 were tested in combination with a bioactive carrier as defined above in the Examples Section (i.e. titanium, ceramics, PEEK, hydrogel, etc. . . . ), whereas SEQ ID NO: 1143 to 1180 were tested in solution.
row,Sequence,STRO-1 expression
1,RVPSTSSVPAKTSPISILYI [SEQ ID NO: 43],15%
2,GSAGPSSVPTKMSAISMLYL [SEQ ID NO: 1],21%
3,HVTKPTSVPEKLSSLSILFF [SEQ ID NO: 9],29%
4,GTPGPVPTGQSAISMLYL (GFR-binding peptide) [SEQ ID NO: 27],24%
5,ASAAPSSVPAALSPISILYI [SEQ ID NO: 44],15%
6,KVGKASSVPTKLSAISMLYL [SEQ ID NO: 20],19%
7,GTPGPVPTELSPISVLYK (GFR-binding peptide) [SEQ ID NO: 25],17%
8,GTPGPGSAGPSSTPTKMSAISMLYL (GTPGPGSAGPXXTPTKMSAISMLYL; GFR-binding peptide; MOD_RES (11)..(12): Xaa is C or S) [SEQ ID NO: 34],26%
9,ASASPSSTQVDLRPVQVRKI [SEQ ID NO: 40],36%
10,GGGKASSVPTKLSAISMLYL [SEQ ID NO: 21],30%
11,TVPKPSSAPTQLSAISMLYL [SEQ ID NO: 18],23%
12,HVPKPSSAPTKLSAISMLYL [SEQ ID NO: 12],28%
13,RNVQSRPTQVQLNAISVLYF [SEQ ID NO: 11],24%

# Same assay, conditions: SEQ ID NO: 1 to 49 tested in combination with a bioactive carrier (titanium, ceramics, PEEK, hydrogel, etc.), listed as 45
row,Sequence,STRO-1 expression
1,NDEGLESVPAEESPISILYI [SEQ ID NO: 45],16%

# Same assay, conditions: SEQ ID NO: 1143 to 1180 tested in solution
row,Sequence,STRO-1 expression
1,STPPTSSVPTEVSPINTLYF (GFR-binding peptide) [SEQ ID NO: 1166],19%
2,STPPTSSVSQKMKPLSILYV (GFR-binding peptide) [SEQ ID NO: 1170],25%
3,AASKASSSRVKMSPINVLYF (GFR-binding peptide) [SEQ ID NO: 1167],19%
4,KIPKASSTQVRLRSVKTAKV (GFR-binding peptide) [SEQ ID NO: 1178],35%
5,STPPTSSTPTKMSNITTQIM (GFR-binding peptide) [SEQ ID NO: 1175],27%
6,AASKASSVPQRLRSVKVAKV (GFR-binding peptide) [SEQ ID NO: 1177],31%
7,KIPKASSSRVRLSSLSTLFF (GFR-binding peptide) [SEQ ID NO: 1157],20%
8,GIPEPSSAPVDMRPVQIRKI (GFR-binding peptide) [SEQ ID NO: 1180],30%
9,RVPSTSSVPTGQSAISTLYL (GFR-binding peptide) [SEQ ID NO: 1144],19%
10,STPPTSSSRVQLSAISMLYL (GFR-binding peptide) [SEQ ID NO: 1154],15%
11,RVPSTSSVPAEESNITVQIM (GFR-binding peptide) [SEQ ID NO: 1176],26%
12,RVPSTSSTQVDLNAISVLYF (GFR-binding peptide) [SEQ ID NO: 1159],23%
13,KIPKASSVSQKMEPLTMLYY (GFR-binding peptide) [SEQ ID NO: 1150],20%
14,RVPSTSSAPTKMNAISMLYF (GFR-binding peptide) [SEQ ID NO: 1145],23%
15,KIPKASSTQVRLRPVQIRKI (GFR-binding peptide) [SEQ ID NO: 1153],30%

# Same assay, conditions: grafted on a PET surface
row,Sequence,STRO-1 expression
1,"SRVLPIVVQGYVPVQDTKFLGIYYVIGPIIARVILSSSSAISSLNKS (Previously reported sequence) [SEQ ID NO: 1138, reference compound]",84%
2,"DPLPIIYYVGRNVRVEQLSNMVVRACKCS (Previously reported sequence) [SEQ ID NO: 1089, reference compound]",97%
3,"VPTKLEPISVLYKDDMGVPTLKYHYEGMAVSECGCR (Previously reported sequence) [SEQ ID NO: 1105, reference compound]",81%
4,"KIPKPSSAPTELSAISMLYC (Previously reported sequence) [SEQ ID NO: 1133, reference compound]",80%
5,"MRTESTPTTASAISYECLWSPPSNEAAKLHFDS (Previously reported sequence) [SEQ ID NO: 1137, reference compound]",94%
6,"CKIPKPSSAPTELSAISMLYL (Previously reported sequence) [SEQ ID NO: 1135, reference compound]",78%
7,"SSVPAVCSATSATGPYSTATNTVVVFDVYATTVY (SSVPAVCSATSATGPYSTATNTVWFDVYATTVY; Previously reported sequence) [SEQ ID NO: 1117, reference compound]",91%
8,"KGSEYEKLVVSGITQVYQSSLSWHGCKSCCEVQVXNLXILIRLYDVHYYN (not fully specified; X: residue not identified in the source; ends and bridges not checked) [SEQ ID NO: 1122, reference compound]",88%
9,"SSVPAVCSATSATGPYSSGSVEVTFDVYATTVY (Previously reported sequence) [SEQ ID NO: 1116, reference compound]",92%
10,"LNEVLRFCGIQVPEGDEPLTY (Previously reported sequence) [SEQ ID NO: 1095, reference compound]",99%
11,"KPCCAPTELSAISVLYFDDSSNVILKKYRNMVVRACGCR (Previously reported sequence) [SEQ ID NO: 1142, reference compound]",83%
12,"LMDLARMPSCLRGERAVPQDTTGYFTWSSNITPLNFIF (Previously reported sequence) [SEQ ID NO: 1093, reference compound]",92%
13,"CPKPSSAPTELSAISMLL (Previously reported sequence) [SEQ ID NO: 1130, reference compound]",79%
14,"CCAPTQLSAISVLYFDDSSNVILKKYRNMVVRACGCR (Previously reported sequence) [SEQ ID NO: 1140, reference compound]",82%
15,"VPTELSPISLLYLDEFEKVTLKNYQDMVVDG (Previously reported sequence) [SEQ ID NO: 1110, reference compound]",87%
16,"MALPQPRGSSLSKAPVVVAPCMALKRVNIRSIVFEVLKTMNQNCIHETPN (Previously reported sequence) [SEQ ID NO: 1123, reference compound]",82%
17,"CIPKPSSAPTELSAISMLYL (Previously reported sequence) [SEQ ID NO: 1134, reference compound]",83%
18,"HIRSTTSSYVSLKSNITNRTIQTPTYSYT (Previously reported sequence) [SEQ ID NO: 1092, reference compound]",98%
19,"NPGASASPCCVSQDLEPLPIL (Previously reported sequence) [SEQ ID NO: 1098, reference compound]",86%
20,"KIPKPSSAPTELSAISMLC (Previously reported sequence) [SEQ ID NO: 1132, reference compound]",82%
21,"PNYSVPAGNKPLSERE (Previously reported sequence) [SEQ ID NO: 1100, reference compound]",95%
22,"APTQLSAISVL (Previously reported sequence) [SEQ ID NO: 1127, reference compound]",93%
23,"TLXPIVSSXNPSPISFRXIKILLHDLEVVPFPKSRVR (not fully specified; X: residue not identified in the source; ends and bridges not checked) [SEQ ID NO: 1107, reference compound]",84%
